Experimental data from ChEMBL document CHEMBL1201862, “PubChem BioAssay data set” (2004).
Counter-ions that a name gives are not always drawn. Calls of active or inactive are those of the source.

Legend:
[1] = target: 5-hydroxytryptamine receptor 2A (Mus musculus, UniProt P35363); assay type: functional, cell-based;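 note: CHO-K1 cells with tagged receptor and beta-arrestin; agonist potency measured as compound-induced activation of the receptor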
[2] = tested on: Escherichia coli; test: microbe, parasite or virus in culture
[3] = target: T1, Mu-type opioid receptor (Homo sapiens, UniProt P35372); assay type: functional, cell-based
[4] = tested on: Escherichia coli; test: microbe, parasite or virus in culture; remark: listed apart in the source
[5] = target: Peroxisome proliferator-activated receptor gamma/Nuclear receptor coactivator 2 (Homo sapiens, UniProt P37231); test: (§1) TR-FRET dose response biochemical High Throughput Screening assay for agonists of the steroid receptor coactivator 2 (SRC-2) recruitment by the peroxisome proliferator-activated receptor gamma (PPAR gamma): non-selective agonists. [Related pubchem assays: 1297, 1032 ]; assay type: functional
[6] = target: Peroxisome proliferator-activated receptor gamma/Nuclear receptor coactivator 3 (Homo sapiens, UniProt P37231); test: as §1, with “3 (SRC-3)” for “2 (SRC-2)”, “1301 (Confirmation screen.), 1048 (Primary screen.)]” for “1297, 1032 ]”; assay type: functional
[7] = target: Peroxisome proliferator-activated receptor gamma/Nuclear receptor coactivator 1 (Homo sapiens, UniProt P37231); test: as §1, with “1 (SRC-1)” for “2 (SRC-2)”, “assays (depositor defined):AID1300, AID1808, AID504735, AID631]” for “assays: 1297, 1032 ]”; assay type: protein assay
[8] = target: Exodeoxyribonuclease V (Escherichia coli (strain K12), UniProt P04993+P07648+P08394); test: E. coli RecBCD inhibitors, dose response, counter-screen for AddAB inhibitor project, absorbance, V66 E. coli, mutant T4 phage (AID 492957); assay type: functional, cell-based, Escherichia coli str. K-12 substr. MG1655
[9] = growth suppression of PTEN-null colon cells, dose response, cell-based, HCT116 PTEN knockout (AID 1047); assay type: functional;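 note: HCT116 colon tumor cells with PTEN knocked out; cells exposed to compound for 60 hours before readout; potency for loss of cell viability measured by luminescence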
[10] = tested on: Vero; test: cells; assay type: functional, cell-based; settings: Chlorocebus sabaeus
[11] = human group III sPLA2 inhibitors, dose response, biochemical, QFRET, IC50 (AID 743457);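 note: green fluorescence rise as the enzyme cleaves BODIPY PC-A2 in liposomes; potency for inhibition of the enzyme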
[12] = Counterscreen for AddAB inhibitors: absorbance-based bacterial cell-based high throughput dose response assay for inhibitors of bacterial viability. [Related pubchem assays (depositor defined):AID435030, AID449728, AID449731, AID488942, AID488955, AID488956]; assay type: functional
[13] = tested on: Vero; test: cells; assay type: functional; settings: Chlorocebus sabaeus
[14] = growth suppression of beta-catenin-knockout colon cells, dose response, cell-based, HCT116, human colon tumor (AID 1045); assay type: functional;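 note: HCT116 colon tumor cells with beta catenin knocked out; cells exposed to compound for 60 hours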
[15] = target: T2, Ubiquitin-conjugating enzyme E2 N (Homo sapiens, UniProt P61088); assay type: functional
T2 sequence (P61088 whole entry): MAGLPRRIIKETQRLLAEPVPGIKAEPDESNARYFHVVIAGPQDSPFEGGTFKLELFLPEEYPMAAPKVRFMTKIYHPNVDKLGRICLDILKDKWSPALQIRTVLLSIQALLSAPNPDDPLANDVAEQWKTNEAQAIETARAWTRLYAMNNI

[16] = target: Bcl-2-related protein A1 (Mus musculus, UniProt Q07440); assay type: functional;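 note: confirmatory dose–response counterscreen on Bfl-1, used to check hits from a UBC13 polyubiquitin inhibitor campaign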
[17] = target: T3, DNA repair protein RAD52 homolog (Homo sapiens, UniProt P43351); assay type: functional, biochemical
T3 sequence (P43351 whole entry): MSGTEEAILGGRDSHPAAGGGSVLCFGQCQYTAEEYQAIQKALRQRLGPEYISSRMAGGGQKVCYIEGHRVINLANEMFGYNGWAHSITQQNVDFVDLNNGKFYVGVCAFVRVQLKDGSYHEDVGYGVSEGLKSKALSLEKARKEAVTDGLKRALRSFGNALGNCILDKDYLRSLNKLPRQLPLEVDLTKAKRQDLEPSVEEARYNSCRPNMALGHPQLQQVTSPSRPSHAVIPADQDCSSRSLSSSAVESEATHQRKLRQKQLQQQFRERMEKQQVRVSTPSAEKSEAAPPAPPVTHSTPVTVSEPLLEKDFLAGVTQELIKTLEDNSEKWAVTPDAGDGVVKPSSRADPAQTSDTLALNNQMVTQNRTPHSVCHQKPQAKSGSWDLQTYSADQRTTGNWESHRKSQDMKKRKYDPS

[18] = target: Delta-type opioid receptor (Homo sapiens, UniProt P41143); test: SAR Analysis of Agonists of the DOR Receptor using an Image-Based Assay - Set 3. [Related pubchem assays (depositor defined):AID1777, AID1786]; assay type: functional
[19] = target: T4, Kappa-type opioid receptor (Homo sapiens, UniProt P41145); test: KOR agonist analogs, arrestin-GFP redistribution, SAR follow-up, imaging, image-based, set 3 (AID 488833); assay type: functional
[20] = target: T4, Kappa-type opioid receptor; test: SAR analysis of small molecule agonists of the kappa opioid receptor via a luminescent beta-arrestin assay - Set 3. [Related pubchem assays (depositor defined):AID1777, AID1785, AID1786, AID1966, AID2133, AID2136, AID2284, AID2500]; assay type: functional
[21] = target: T1, Mu-type opioid receptor; test: SAR Analysis of Agonists of the MOR Receptor using an Image-Based Assay - Set 3. [Related pubchem assays (depositor defined):AID1777, AID1785, AID1786, AID1966, AID2133, AID2136, AID2284, AID2285, AID2352]; assay type: functional
[22] = target: T5, Tyrosine-protein phosphatase non-receptor type 22 (Homo sapiens, UniProt Q9Y2R2); assay type: functional
T5 sequence (Q9Y2R2 whole entry): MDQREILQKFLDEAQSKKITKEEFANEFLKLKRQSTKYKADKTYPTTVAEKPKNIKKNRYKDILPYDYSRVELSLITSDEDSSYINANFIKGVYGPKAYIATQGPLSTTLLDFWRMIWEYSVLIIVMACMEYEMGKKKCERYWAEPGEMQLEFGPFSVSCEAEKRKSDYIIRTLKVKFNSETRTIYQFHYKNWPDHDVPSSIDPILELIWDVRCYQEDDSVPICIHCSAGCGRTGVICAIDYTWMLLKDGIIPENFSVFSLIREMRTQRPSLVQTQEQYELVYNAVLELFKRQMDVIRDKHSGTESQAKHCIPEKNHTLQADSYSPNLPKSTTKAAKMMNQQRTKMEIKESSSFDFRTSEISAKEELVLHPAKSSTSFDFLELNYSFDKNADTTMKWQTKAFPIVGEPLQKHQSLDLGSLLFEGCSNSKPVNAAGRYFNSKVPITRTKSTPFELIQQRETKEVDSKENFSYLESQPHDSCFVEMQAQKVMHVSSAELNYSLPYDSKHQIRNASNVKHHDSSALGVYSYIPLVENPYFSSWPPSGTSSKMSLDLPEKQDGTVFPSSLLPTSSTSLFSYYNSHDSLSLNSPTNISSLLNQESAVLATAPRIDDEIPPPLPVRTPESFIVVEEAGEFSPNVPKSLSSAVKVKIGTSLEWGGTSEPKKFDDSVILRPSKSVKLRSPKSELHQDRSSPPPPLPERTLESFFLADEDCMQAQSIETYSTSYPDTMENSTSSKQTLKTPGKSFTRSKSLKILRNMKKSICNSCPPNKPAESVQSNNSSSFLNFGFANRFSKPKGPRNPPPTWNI

[23] = target: T6, Tyrosine-protein phosphatase non-receptor type 7 (Homo sapiens, UniProt P35236); assay type: functional
T6 sequence (P35236 whole entry): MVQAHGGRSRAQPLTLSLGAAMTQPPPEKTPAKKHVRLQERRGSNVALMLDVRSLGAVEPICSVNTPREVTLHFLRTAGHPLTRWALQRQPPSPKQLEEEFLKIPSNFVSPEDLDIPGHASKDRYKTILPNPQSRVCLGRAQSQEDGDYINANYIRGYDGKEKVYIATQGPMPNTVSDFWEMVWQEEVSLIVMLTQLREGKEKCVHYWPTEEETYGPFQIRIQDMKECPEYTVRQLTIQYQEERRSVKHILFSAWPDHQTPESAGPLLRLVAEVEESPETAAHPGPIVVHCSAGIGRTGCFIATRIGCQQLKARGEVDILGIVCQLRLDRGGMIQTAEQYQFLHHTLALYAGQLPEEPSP

[24] = P. falciparum late gametocyte killing, dose response, luminescence (AID 1117278); assay type: functional, cell-based;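 note: gametocytes exposed to compound for 24 hours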
[25] = Jurkat T cell cytotoxicity, dose response, cytotoxicity control for P. falciparum gametocyte viability project, luminescence (AID 1117277); assay type: functional, cell-based;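 note: potency reflects loss of cellular ATP meaning fewer viable cells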
[26] = target: T5, Tyrosine-protein phosphatase non-receptor type 22; assay type: functional; remark: listed apart in the source

T4 sequence (P41145 whole entry): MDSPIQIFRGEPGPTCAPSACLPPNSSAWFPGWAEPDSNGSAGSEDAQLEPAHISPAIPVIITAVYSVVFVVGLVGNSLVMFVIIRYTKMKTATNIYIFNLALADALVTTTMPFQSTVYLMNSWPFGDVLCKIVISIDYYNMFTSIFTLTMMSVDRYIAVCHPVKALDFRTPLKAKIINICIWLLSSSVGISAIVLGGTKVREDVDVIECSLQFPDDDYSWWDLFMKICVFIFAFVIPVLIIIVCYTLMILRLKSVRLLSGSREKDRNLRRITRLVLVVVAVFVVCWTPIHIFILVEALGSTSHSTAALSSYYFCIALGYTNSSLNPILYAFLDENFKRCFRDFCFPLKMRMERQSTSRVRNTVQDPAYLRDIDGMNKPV
T1 sequence (P35372 whole entry): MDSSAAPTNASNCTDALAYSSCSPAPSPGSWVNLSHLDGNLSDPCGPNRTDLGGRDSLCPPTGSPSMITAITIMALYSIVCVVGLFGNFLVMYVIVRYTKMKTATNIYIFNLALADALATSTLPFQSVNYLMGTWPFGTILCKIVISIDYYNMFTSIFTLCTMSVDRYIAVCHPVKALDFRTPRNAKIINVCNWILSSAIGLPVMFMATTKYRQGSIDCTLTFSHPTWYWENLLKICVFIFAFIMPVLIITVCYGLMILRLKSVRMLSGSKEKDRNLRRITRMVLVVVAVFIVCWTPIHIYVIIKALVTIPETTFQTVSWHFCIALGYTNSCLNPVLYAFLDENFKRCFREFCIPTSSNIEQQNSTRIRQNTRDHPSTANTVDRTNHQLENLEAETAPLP
Bcl-2-related protein A1, sequence (Q07440 whole entry): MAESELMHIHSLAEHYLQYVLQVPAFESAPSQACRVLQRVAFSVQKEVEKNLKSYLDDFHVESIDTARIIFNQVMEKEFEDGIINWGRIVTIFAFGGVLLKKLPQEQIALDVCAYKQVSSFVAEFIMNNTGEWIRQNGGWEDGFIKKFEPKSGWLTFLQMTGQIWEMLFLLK
Exodeoxyribonuclease V, sequence (P04993 whole entry): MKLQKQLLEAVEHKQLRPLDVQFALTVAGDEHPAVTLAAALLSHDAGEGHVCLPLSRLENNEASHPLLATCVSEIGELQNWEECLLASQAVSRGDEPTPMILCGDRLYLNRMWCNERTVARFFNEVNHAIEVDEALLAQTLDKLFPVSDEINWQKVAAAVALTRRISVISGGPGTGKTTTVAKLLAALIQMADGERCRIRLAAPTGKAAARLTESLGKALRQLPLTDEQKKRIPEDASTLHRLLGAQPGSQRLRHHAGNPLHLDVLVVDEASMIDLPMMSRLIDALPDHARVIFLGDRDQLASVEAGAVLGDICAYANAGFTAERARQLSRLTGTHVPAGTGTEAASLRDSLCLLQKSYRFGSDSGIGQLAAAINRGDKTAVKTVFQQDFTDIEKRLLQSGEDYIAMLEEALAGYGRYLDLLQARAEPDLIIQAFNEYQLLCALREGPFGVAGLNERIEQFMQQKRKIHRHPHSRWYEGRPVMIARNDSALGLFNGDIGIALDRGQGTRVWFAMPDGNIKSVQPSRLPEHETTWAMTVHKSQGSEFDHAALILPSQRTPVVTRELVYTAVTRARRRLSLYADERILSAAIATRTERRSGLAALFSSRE
Exodeoxyribonuclease V, sequence (P07648 whole entry): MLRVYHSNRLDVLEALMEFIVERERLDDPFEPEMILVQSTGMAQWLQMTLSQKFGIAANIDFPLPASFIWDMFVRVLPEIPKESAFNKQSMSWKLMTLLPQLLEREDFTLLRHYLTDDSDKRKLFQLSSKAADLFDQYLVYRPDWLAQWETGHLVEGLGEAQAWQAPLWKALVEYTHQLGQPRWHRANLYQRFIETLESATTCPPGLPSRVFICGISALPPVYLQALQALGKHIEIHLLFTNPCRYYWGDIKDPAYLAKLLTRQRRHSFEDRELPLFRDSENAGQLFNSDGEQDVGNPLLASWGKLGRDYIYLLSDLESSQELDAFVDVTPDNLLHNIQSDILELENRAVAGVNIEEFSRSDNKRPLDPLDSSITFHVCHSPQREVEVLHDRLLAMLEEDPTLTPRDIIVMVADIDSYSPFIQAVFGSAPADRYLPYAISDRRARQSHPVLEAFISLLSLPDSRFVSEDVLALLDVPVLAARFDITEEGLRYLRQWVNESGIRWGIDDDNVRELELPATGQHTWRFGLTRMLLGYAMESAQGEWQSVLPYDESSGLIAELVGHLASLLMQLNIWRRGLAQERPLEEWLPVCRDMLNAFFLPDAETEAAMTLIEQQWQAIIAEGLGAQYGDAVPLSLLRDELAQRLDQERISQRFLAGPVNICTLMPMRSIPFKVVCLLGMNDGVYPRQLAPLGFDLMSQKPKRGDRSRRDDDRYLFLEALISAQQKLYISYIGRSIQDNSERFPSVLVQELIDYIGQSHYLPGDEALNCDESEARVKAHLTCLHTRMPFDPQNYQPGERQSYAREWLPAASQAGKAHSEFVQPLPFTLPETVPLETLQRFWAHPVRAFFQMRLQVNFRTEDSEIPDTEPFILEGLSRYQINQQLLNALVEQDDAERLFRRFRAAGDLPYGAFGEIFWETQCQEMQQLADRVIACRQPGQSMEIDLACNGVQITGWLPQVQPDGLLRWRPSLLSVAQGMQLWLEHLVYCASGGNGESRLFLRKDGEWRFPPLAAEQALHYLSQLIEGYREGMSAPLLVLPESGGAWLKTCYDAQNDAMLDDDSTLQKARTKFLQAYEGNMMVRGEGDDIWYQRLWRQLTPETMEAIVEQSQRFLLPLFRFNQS
Exodeoxyribonuclease V, sequence (P08394 whole entry): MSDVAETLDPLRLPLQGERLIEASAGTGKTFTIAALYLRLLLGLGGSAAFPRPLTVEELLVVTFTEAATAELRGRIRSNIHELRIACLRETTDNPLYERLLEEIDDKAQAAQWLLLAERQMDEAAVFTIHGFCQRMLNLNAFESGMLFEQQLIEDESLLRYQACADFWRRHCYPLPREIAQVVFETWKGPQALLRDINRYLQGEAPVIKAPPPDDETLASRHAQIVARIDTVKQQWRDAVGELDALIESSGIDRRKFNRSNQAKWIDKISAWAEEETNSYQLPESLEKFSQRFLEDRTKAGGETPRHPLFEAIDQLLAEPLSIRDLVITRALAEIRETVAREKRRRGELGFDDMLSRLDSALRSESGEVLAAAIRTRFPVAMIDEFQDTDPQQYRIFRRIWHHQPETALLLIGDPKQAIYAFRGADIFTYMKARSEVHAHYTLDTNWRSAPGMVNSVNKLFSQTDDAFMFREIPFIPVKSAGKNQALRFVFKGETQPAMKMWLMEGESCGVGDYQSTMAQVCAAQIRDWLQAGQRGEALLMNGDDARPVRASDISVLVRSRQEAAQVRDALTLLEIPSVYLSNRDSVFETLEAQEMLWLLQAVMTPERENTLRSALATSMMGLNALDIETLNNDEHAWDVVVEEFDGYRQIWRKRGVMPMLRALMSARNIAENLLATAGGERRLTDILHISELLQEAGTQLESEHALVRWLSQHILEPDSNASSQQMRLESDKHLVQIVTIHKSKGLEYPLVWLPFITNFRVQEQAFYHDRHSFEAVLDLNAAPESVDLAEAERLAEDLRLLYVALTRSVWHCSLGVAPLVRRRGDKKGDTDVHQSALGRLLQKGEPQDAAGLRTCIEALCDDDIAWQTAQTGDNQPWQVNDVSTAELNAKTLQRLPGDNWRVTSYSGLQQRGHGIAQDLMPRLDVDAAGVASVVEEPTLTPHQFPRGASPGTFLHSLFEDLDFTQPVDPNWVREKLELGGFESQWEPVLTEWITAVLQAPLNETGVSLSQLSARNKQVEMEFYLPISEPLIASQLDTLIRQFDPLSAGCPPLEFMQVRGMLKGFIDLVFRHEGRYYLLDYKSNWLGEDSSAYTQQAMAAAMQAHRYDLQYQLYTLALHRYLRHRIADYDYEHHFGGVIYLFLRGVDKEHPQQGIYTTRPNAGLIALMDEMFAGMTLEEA
5-hydroxytryptamine receptor 2A, sequence (P35363 whole entry): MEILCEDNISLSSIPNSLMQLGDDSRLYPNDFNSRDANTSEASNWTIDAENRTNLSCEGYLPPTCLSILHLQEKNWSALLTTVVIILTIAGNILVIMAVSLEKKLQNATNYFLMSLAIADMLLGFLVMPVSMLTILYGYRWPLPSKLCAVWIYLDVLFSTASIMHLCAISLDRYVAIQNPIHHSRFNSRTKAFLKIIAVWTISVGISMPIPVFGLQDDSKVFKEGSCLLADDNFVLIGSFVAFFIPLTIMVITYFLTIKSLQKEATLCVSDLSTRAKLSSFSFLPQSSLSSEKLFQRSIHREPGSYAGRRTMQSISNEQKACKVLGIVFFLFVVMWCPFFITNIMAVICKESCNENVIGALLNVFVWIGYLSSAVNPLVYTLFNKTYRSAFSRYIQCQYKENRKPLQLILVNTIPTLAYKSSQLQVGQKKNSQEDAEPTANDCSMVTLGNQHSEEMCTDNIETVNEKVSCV
Delta-type opioid receptor, sequence (P41143 whole entry): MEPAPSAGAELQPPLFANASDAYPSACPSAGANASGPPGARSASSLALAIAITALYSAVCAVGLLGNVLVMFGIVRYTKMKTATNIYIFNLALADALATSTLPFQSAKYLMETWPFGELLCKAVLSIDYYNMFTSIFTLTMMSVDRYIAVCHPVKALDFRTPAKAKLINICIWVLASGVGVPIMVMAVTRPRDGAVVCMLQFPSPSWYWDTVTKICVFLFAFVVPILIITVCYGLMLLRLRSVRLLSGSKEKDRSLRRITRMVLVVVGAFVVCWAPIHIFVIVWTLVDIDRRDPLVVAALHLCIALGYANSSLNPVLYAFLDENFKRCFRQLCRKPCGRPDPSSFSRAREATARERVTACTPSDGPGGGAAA

Q: For `CN(C)[C@@H]1C(O)=C(C(N)=O)C(=O)[C@@]2(O)C(O)=C3C(=O)c4c(O)ccc(Cl)c4[C@@H](O)[C@H]3C[C@@H]12` [DEMECLOCYCLINE HYDROCHLORIDE], which EC50 [1] is on record?
A: 13.7 µM (inactive)

Q: What about the AC50 [2] of the same compound?
A: 0.866 µM (active)

Q: What about the EC50 [3] of the same compound?
A: 92.5 µM (inactive)

Q: And the AC50 [4]?
A: 36 µM (active)

Q: With `O=C(O)CN1C(=O)CC(Cc2ccc(Cl)cc2)C1=O` (configuration not stated) as the compound, how does the AC50 [4] read?
A: 106 µM (active)

Q: With `Cn1c(=O)cc(SCC(=O)N2CCCC2)c2ccc(Cl)cc21` as the compound, how does the EC50 [5] read?
A: > 79.4 µM (not active)

Q: What about the EC50 [6] of the same compound?
A: > 79.4 µM (not active)

Q: What about the EC50 [7] of the same compound?
A: > 79.4 µM (inactive)

Q: With `CCCCCOc1ccc(CSC(=N)N)cc1[N+](=O)[O-]` as the compound, how does the IC50 [8] read?
A: > 39.5 µM (inactive)

Q: And the EC50 [9]?
A: 25 µM (active)

Q: And the IC50 [10]?
A: 21.2 µM (active)

Q: What about the IC50 [11] of the same compound?
A: > 122 µM (inactive)

Q: And the IC50 [12]?
A: 83.6 µM (inactive)

Q: And the CC50 [13]?
A: > 25 µM (active)

Q: What about the EC50 [14] of the same compound?
A: 27 µM (active)

Q: For `C[C@]12CC[C@H](O)C[C@@H]1CC[C@@H]1[C@@H]2CC[C@]2(C)[C@@H](OC(=O)[C@H](N)CCCCN)CC[C@@H]12`, which IC50 [15] is on record?
A: 11.8 µM (active)

Q: What about the IC50 [16] of the same compound?
A: > 20 µM (inactive)

Q: What about the AC50 [17] of the same compound?
A: 1.27 µM (active)

Q: With `Fc1ccc(CSc2nnc(-c3ccccn3)n2Cc2ccco2)c(C(F)(F)F)c1` as the compound, how does the EC50 [18] read?
A: > 64 µM (inactive)

Q: And the EC50 [19]?
A: 5.39 µM (active)

Q: And the EC50 [20]?
A: 8.27 µM (active)

Q: What about the EC50 [21] of the same compound?
A: > 32 µM (inactive)

Q: For `COc1ccc(C(C#N)(CCC#N)CCC#N)cc1OC`, which IC50 [22] is on record?
A: > 79.4 µM (inactive)

Q: And the IC50 [23]?
A: > 79.4 µM (inactive)

Q: And the IC50 [24]?
A: > 109 µM (inactive)

Q: What about the IC50 [25] of the same compound?
A: > 83.3 µM (inactive)

Q: What about the IC50 [26] of the same compound?
A: > 79.4 µM (inactive)
